Data from PubChem BioAssay (NCI).
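48-hour exposure; five concentrations; linearly interpolated endpoints. TGI marks complete inhibition of growth.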

Columns and labels:
Assay in all cases: NCI tumour cell line growth inhibition, 48 h
[1] = test system: SK-MEL-28 melanoma
[2] = test system: HOP-92 NSCLC
[3] = test system: OVCAR-3 ovarian
[4] = test system: HCT-15 colon
[5] = test system: DMS 273 small cell lung
[6] = test system: M14 melanoma
[7] = test system: MALME-3M melanoma
[8] = test system: CCRF-CEM leukemia
[9] = test system: RPMI-8226 leukemia
[10] = test system: UACC-257 melanoma
[11] = test system: A549 NSCLC
[12] = test system: DMS 114 small cell lung
[13] = test system: LOX IMVI melanoma
[14] = test system: IGROV1 ovarian
[15] = test system: LXFL 529 NSCLC
[16] = test system: M19-MEL melanoma
[17] = test system: 786-0 renal
[18] = test system: A498 renal
[19] = test system: TK-10 renal
[20] = test system: NCI-H460 lung
[21] = test system: HOP-62 NSCLC
[22] = test system: XF 498 CNS
[23] = test system: UACC-62 melanoma
[24] = test system: HT29 colon
[25] = test system: SF-295 CNS
[26] = test system: HOP-18 NSCLC
[27] = test system: EKVX NSCLC
[28] = test system: SR leukemia
[29] = test system: SNB-75 CNS
[30] = test system: DLD-1 colon
[31] = test system: SK-OV-3 ovarian
[32] = test system: SK-MEL-5 melanoma
[33] = test system: UO-31 renal
[34] = test system: SNB-19 CNS
[35] = test system: SK-MEL-2 melanoma
[36] = test system: KM12 colon
[37] = test system: CAKI-1 renal
[38] = test system: U251 CNS
[39] = test system: RXF 393 renal
[40] = test system: HCC-2998 colon
[41] = test system: RXF-631 renal
[42] = test system: COLO 205 colon
[43] = test system: SN12C renal
[44] = test system: NCI-H522 lung
[45] = test system: MOLT-4 leukemia
[46] = test system: SF-268 CNS
[47] = test system: HL-60(TB) leukemia
[48] = test system: SNB-78 CNS
[49] = test system: HCT-116 colon
[50] = test system: ACHN renal
[51] = test system: NCI-H226 lung
[52] = test system: OVCAR-4 ovarian
[53] = test system: OVCAR-5 ovarian
[54] = test system: OVCAR-8 ovarian
[55] = test system: KM20L2 colon
[56] = test system: SF-539 CNS
[57] = test system: NCI-H23 lung
[58] = test system: K-562 leukemia
[59] = test system: SW-620 colon

`CCOc1ccc2nc(NC(=O)C(=O)C(C#N)CC(C)(C)C=O)sc2c1` (stereo unspecified) was tested, and the TGI [1] was over 100 µM, the TGI [2] was over 100 µM and the TGI [3] was over 100 µM. The TGI [4] was over 100 µM, the TGI [5] was 51.5 µM and the TGI [6] was over 100 µM. The TGI [7] was over 100 µM, the TGI [8] was 63.1 µM and the TGI [9] was over 100 µM. The TGI [10] was over 100 µM, the TGI [11] was over 100 µM and the TGI [12] was over 100 µM. The TGI [13] was over 100 µM, the TGI [14] was over 100 µM and the TGI [15] was over 100 µM. It also gave a TGI [16] of over 100 µM, a TGI [17] of over 100 µM and a TGI [18] of over 100 µM. The TGI [19] was over 100 µM, the TGI [20] was over 100 µM and the TGI [21] was over 100 µM. For the same compound, the TGI [22] was over 100 µM, the TGI [23] was over 100 µM and the TGI [24] was over 100 µM. For the same compound, the TGI [25] was over 100 µM, the TGI [26] was over 100 µM and the TGI [27] was over 100 µM. It also gave a TGI [28] of 46 µM, a TGI [29] of over 100 µM and a TGI [30] of over 100 µM. For the same compound, the TGI [31] was over 100 µM, the TGI [32] was over 100 µM and the TGI [33] was over 100 µM. For the same compound, the TGI [34] was over 100 µM, the TGI [35] was over 100 µM and the TGI [36] was over 100 µM. For the same compound, the TGI [37] was over 100 µM, the TGI [38] was over 100 µM and the TGI [39] was over 100 µM. For the same compound, the TGI [40] was over 100 µM, the TGI [41] was over 100 µM and the TGI [42] was over 100 µM. It also gave a TGI [43] of over 100 µM, a TGI [44] of over 100 µM and a TGI [45] of over 100 µM. For the same compound, the TGI [46] was over 100 µM, the TGI [47] was over 100 µM and the TGI [48] was over 100 µM. For the same compound, the TGI [49] was over 100 µM, the TGI [50] was over 100 µM and the TGI [51] was over 100 µM. The TGI [52] was over 100 µM, the TGI [53] was over 100 µM and the TGI [54] was over 100 µM. For the same compound, the TGI [55] was over 100 µM, the TGI [56] was over 100 µM and the TGI [57] was over 100 µM. For the same compound, the TGI [58] was over 100 µM.
Work on `CCCCCCCCCCC(O)CCCCCCC(=O)O` (stereo unspecified) yielded a TGI [1] of over 100 µM, a TGI [2] of 37.3 µM and a TGI [59] of 86.5 µM. It also gave a TGI [3] of 45.3 µM, a TGI [5] of 55.6 µM and a TGI [6] of 44.3 µM. It also gave a TGI [7] of 59.5 µM, a TGI [8] of 91.3 µM and a TGI [9] of 28.2 µM. For the same compound, the TGI [10] was over 100 µM, the TGI [11] was 54.7 µM and the TGI [12] was 56.2 µM. For the same compound, the TGI [13] was 31.1 µM, the TGI [14] was 34.6 µM and the TGI [15] was 71 µM. The TGI [16] was over 100 µM, the TGI [17] was 93.3 µM and the TGI [18] was 46.1 µM. It also gave a TGI [19] of over 100 µM, a TGI [20] of 32.4 µM and a TGI [21] of over 100 µM. The TGI [22] was 88.9 µM, the TGI [23] was 41.7 µM and the TGI [24] was 40.6 µM. For the same compound, the TGI [25] was 80.8 µM, the TGI [26] was 63 µM and the TGI [27] was over 100 µM. For the same compound, the TGI [28] was 41.9 µM, the TGI [29] was over 100 µM and the TGI [30] was 59.7 µM. For the same compound, the TGI [31] was over 100 µM, the TGI [32] was 29.9 µM and the TGI [33] was over 100 µM. It also gave a TGI [34] of over 100 µM, a TGI [35] of over 100 µM and a TGI [36] of 31.6 µM. For the same compound, the TGI [37] was over 100 µM, the TGI [38] was 45.8 µM and the TGI [39] was 98 µM. The TGI [41] was 39.1 µM, the TGI [42] was 30 µM and the TGI [43] was 50.7 µM. For the same compound, the TGI [44] was 62.5 µM, the TGI [45] was 34.5 µM and the TGI [46] was over 100 µM. For the same compound, the TGI [47] was 25.6 µM, the TGI [48] was over 100 µM and the TGI [49] was 33.3 µM. The TGI [50] was 54 µM, the TGI [51] was over 100 µM and the TGI [52] was over 100 µM. For the same compound, the TGI [53] was over 100 µM, the TGI [54] was 31.1 µM and the TGI [56] was 67.3 µM. For the same compound, the TGI [57] was over 100 µM and the TGI [58] was 39.1 µM.
`Cn1ncc2c(Nc3ccc(Cl)cc3)c3ccccc3nc21` showed a TGI [1] of 29.7 µM, a TGI [2] of 39.1 µM and a TGI [59] of 39.1 µM. It also gave a TGI [3] of 46.2 µM, a TGI [4] of 40 µM and a TGI [5] of 35.5 µM. For the same compound, the TGI [6] was 28.3 µM, the TGI [7] was 39.7 µM and the TGI [8] was 56.7 µM. It also gave a TGI [9] of 93.9 µM, a TGI [10] of 31.7 µM and a TGI [11] of 43.2 µM. For the same compound, the TGI [12] was 34.5 µM, the TGI [13] was 32.7 µM and the TGI [14] was 54.7 µM. The TGI [15] was 34.7 µM, the TGI [16] was 37.2 µM and the TGI [17] was 32.4 µM. It also gave a TGI [18] of 29.7 µM, a TGI [19] of 77.3 µM and a TGI [20] of 52.7 µM. It also gave a TGI [21] of 31.9 µM, a TGI [22] of over 10 µM and a TGI [23] of 31.6 µM. For the same compound, the TGI [24] was 27.1 µM, the TGI [25] was 36 µM and the TGI [26] was 69.5 µM. The TGI [27] was over 10 µM, the TGI [28] was over 100 µM and the TGI [29] was 29.2 µM. It also gave a TGI [30] of 30.3 µM, a TGI [31] of 54.9 µM and a TGI [32] of 26.7 µM. For the same compound, the TGI [33] was over 10 µM, the TGI [34] was 43.9 µM and the TGI [35] was 33.7 µM. It also gave a TGI [36] of 40.9 µM, a TGI [37] of 80.6 µM and a TGI [38] of 29.3 µM. It also gave a TGI [40] of 39.7 µM, a TGI [41] of 33.5 µM and a TGI [42] of 42.4 µM. It also gave a TGI [43] of 58.3 µM, a TGI [44] of 37.2 µM and a TGI [45] of 63.2 µM. For the same compound, the TGI [46] was 51.5 µM, the TGI [47] was 73.6 µM and the TGI [48] was 74.6 µM. It also gave a TGI [49] of 26.4 µM, a TGI [50] of 55.9 µM and a TGI [51] of 35.4 µM. For the same compound, the TGI [52] was 29.2 µM, the TGI [53] was 47.5 µM and the TGI [54] was 30.3 µM. It also gave a TGI [56] of 30.1 µM, a TGI [57] of over 10 µM and a TGI [58] of 56.7 µM.
